According to the kinase profiling compilation of Christmann-Franck et al. (2016):

Assays:
RAF1 (human) = RAF1 (human) (UniProt P04049); test: ELISA
BRAF (human) = BRAF (human) (UniProt P15056); test: ELISA
MAP3K1 (human) = MAP3K1 (human) (UniProt Q13233); test: ELISA
MAP3K12 (human) = MAP3K12 (human) (UniProt Q12852); test: ELISA
MAP2K4 (human) = MAP2K4 (human) (UniProt P45985); test: ELISA
MAP2K2 (human) = MAP2K2 (human) (UniProt P36507); test: ELISA
MAP2K5 (human) = MAP2K5 (human) (UniProt Q13163); test: ELISA
MAP2K1 (human) = MAP2K1 (human) (UniProt Q02750); test: ELISA
MAP3K11 (human) = MAP3K11 (human) (UniProt Q16584); test: ELISA
BMPR1A (human) = BMPR1A (human) (UniProt P36894); test: ELISA
MAP3K2 (human) = MAP3K2 (human) (UniProt Q9Y2U5); test: ELISA
MAP2K6 (human) = MAP2K6 (human) (UniProt P52564); test: ELISA
TTK (human) = TTK (human) (UniProt P33981); test: ELISA
MAP3K4 (human) = MAP3K4 (human) (UniProt Q9Y6R4); test: ELISA
PLK4 (human) = PLK4 (human) (UniProt O00444); test: ELISA
MAP2K3 (human) = MAP2K3 (human) (UniProt P46734); test: ELISA
MAP3K8 (human) = MAP3K8 (human) (UniProt P41279); test: ELISA
MOS (human) = MOS (human) (UniProt P00540); test: ELISA
WEE1 (human) = WEE1 (human) (UniProt P30291); test: ELISA
MAP3K5 (human) = MAP3K5 (human) (UniProt Q99683); test: ELISA
MAP2K7 (human) = MAP2K7 (human) (UniProt O14733); test: ELISA
LIMK1 (human) = LIMK1 (human) (UniProt P53667); test: ELISA
STK11 (human) = STK11 (human) (UniProt Q15831); test: ELISA
MAP3K10 (human) = MAP3K10 (human) (UniProt Q02779); test: ELISA
MAP3K3 (human) = MAP3K3 (human) (UniProt Q99759); test: ELISA
MAP3K9 (human) = MAP3K9 (human) (UniProt P80192); test: ELISA
SYK (human) = SYK (human) (UniProt P43405); test: Caliper, Mobility shift assay off-chip
PAK6 (human) = PAK6 (human) (UniProt Q9NQU5); test: Caliper, Mobility shift assay off-chip
IGF1R (human) = IGF1R (human) (UniProt P08069); test: Caliper, Mobility shift assay off-chip
STK38 (human) = STK38 (human) (UniProt Q15208); test: Caliper, Mobility shift assay off-chip
CLK3 (human) = CLK3 (human) (UniProt P49761); test: Caliper, Mobility shift assay off-chip
PKN1 (human) = PKN1 (human) (UniProt Q16512); test: IMAP-FP
PLK2 (human) = PLK2 (human) (UniProt Q9NYY3); test: IMAP-FP
SRPK1 (human) = SRPK1 (human) (UniProt Q96SB4); test: IMAP-FP
BTK (human) = BTK (human) (UniProt Q06187); test: Caliper, Mobility shift assay off-chip

BMPR1A (human), sequence (P36894 whole entry, looked up): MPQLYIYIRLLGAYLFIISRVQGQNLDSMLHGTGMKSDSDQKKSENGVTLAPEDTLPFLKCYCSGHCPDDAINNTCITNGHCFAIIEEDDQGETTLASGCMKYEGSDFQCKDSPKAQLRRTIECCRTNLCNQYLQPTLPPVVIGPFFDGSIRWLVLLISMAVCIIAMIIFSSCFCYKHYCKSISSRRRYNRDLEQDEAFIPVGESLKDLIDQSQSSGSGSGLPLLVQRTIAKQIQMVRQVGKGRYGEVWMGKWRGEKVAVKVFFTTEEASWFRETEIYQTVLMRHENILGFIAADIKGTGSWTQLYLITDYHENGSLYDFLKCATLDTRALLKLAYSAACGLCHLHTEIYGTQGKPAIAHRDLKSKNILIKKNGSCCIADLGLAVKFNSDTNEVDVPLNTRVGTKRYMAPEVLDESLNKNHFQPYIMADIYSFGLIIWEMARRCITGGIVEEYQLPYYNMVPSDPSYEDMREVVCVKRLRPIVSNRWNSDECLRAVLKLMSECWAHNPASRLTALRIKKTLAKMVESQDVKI
TTK (human), sequence (P33981 whole entry, looked up): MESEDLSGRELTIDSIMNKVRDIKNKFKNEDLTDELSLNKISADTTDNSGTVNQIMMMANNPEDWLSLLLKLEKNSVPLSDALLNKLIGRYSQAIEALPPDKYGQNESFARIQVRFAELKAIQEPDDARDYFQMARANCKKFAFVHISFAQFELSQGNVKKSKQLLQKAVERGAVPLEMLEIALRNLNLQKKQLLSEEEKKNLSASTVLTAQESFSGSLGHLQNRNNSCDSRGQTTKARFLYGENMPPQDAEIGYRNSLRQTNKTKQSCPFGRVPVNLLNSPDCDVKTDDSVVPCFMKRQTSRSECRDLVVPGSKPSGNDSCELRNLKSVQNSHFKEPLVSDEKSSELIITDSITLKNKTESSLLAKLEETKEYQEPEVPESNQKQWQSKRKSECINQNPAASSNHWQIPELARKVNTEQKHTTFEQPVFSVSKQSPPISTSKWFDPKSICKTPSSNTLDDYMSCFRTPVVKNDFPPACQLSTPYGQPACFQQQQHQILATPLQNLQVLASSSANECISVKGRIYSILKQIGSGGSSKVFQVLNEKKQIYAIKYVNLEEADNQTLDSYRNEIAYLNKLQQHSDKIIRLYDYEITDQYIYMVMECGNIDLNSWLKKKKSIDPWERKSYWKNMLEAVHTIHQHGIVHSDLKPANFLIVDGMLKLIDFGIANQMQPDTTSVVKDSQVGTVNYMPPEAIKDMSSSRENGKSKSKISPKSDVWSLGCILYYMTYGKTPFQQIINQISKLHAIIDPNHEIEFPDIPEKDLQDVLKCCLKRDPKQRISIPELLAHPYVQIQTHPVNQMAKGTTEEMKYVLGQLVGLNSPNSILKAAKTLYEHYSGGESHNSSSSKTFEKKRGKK
MAP3K10 (human), sequence (Q02779 whole entry, looked up): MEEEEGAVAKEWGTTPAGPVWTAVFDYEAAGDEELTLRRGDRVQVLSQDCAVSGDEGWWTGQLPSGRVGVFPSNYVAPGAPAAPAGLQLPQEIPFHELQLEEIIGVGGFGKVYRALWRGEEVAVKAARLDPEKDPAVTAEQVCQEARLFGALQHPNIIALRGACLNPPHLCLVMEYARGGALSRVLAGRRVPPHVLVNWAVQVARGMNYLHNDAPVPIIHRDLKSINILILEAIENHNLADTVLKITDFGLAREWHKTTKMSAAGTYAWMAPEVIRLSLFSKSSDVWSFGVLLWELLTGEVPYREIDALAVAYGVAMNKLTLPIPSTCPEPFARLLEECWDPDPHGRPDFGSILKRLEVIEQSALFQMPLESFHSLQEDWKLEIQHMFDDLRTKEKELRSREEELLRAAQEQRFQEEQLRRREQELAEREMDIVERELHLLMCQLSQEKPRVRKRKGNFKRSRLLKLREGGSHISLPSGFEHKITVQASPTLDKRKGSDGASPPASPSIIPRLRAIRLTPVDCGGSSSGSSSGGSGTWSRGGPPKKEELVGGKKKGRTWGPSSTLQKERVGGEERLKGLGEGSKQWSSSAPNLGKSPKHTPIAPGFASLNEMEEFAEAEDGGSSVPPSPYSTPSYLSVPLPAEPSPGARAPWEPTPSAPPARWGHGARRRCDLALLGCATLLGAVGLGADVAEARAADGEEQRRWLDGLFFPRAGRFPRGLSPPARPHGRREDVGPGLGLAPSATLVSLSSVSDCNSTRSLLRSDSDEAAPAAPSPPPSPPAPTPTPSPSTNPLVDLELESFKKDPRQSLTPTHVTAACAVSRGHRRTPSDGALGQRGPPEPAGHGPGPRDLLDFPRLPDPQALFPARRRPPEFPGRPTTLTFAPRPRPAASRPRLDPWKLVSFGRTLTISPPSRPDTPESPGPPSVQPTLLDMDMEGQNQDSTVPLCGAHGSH
CLK3 (human), sequence (P49761 whole entry, looked up): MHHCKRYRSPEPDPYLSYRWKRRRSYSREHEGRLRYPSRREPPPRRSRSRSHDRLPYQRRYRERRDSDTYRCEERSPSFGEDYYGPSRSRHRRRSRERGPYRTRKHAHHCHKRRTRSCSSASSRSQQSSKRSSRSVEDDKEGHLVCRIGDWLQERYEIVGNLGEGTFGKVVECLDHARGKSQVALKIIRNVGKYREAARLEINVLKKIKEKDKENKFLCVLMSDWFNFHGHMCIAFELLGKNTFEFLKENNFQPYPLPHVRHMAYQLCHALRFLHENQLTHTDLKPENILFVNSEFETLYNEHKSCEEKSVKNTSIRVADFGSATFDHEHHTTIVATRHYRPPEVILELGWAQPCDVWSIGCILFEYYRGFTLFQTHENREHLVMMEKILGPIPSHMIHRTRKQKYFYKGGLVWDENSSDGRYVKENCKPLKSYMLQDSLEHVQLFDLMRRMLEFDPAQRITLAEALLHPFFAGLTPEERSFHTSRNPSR
MAP3K1 (human), sequence (Q13233 whole entry, looked up): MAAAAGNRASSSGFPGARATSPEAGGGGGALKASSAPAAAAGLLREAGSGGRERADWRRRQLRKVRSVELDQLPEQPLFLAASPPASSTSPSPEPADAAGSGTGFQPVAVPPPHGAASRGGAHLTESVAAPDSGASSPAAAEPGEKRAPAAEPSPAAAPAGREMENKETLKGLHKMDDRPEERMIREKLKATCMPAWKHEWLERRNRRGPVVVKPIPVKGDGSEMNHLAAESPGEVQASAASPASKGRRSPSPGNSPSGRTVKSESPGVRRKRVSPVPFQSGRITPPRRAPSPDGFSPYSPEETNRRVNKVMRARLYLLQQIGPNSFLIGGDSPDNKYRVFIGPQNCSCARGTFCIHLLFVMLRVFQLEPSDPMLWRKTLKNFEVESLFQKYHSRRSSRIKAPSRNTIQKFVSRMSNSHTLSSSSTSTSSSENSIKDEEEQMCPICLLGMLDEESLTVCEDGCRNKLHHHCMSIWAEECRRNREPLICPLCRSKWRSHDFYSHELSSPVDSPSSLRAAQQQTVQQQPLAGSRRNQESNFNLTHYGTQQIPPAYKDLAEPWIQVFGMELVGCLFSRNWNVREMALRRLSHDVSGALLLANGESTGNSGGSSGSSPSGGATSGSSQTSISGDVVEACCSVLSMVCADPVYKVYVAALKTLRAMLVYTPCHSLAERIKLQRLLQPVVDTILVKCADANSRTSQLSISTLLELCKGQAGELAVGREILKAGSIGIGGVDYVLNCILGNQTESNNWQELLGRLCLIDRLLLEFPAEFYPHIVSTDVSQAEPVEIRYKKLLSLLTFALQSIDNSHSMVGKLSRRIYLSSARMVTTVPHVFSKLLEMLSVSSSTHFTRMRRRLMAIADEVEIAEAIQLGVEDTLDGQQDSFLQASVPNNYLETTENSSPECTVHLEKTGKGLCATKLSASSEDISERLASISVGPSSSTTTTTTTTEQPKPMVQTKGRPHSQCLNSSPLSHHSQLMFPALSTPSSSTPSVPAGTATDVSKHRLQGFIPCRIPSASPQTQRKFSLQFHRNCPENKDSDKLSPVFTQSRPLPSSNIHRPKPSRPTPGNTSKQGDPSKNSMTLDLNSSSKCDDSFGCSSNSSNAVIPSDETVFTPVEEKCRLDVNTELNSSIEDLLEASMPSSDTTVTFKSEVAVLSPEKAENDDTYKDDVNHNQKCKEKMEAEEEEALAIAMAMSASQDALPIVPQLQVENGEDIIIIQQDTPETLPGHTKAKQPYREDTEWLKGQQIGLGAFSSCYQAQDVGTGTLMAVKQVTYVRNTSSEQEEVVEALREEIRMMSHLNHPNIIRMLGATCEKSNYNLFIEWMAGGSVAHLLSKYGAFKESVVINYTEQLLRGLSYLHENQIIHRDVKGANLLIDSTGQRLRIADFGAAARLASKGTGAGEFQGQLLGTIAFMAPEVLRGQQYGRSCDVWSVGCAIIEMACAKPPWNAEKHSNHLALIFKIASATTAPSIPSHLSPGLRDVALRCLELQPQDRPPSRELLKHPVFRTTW
LIMK1 (human), sequence (P53667 whole entry, looked up): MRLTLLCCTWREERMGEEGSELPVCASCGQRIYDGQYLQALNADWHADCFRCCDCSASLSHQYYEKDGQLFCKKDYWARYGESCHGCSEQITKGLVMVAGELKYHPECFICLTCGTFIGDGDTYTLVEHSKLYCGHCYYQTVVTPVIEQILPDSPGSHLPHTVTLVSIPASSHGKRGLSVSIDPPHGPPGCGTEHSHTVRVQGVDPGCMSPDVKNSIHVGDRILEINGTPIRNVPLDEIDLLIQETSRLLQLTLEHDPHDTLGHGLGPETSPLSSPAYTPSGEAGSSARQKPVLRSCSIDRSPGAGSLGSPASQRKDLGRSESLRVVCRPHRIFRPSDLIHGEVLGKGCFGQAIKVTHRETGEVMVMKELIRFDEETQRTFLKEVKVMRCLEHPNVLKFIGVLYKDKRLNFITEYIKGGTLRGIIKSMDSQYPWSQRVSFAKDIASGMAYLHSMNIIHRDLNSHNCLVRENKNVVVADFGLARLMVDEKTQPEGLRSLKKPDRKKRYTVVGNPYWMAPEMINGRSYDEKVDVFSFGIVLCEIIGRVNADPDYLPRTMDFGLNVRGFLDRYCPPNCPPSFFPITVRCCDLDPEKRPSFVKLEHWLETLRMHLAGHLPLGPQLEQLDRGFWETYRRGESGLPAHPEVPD

For `CNC(=O)c1ccccc1Sc1ccc2c(/C=C/c3ccccn3)n[nH]c2c1`, the inhibition (RAF1 (human); compound 0.001 µM) was 0.9%, the inhibition (RAF1 (human); compound 0.02 µM) was -3% and the inhibition (BRAF (human); compound 0.001 µM) was -1.8%. For the same compound, the inhibition (BRAF (human); compound 0.02 µM) was -4.5%, the inhibition (MAP3K1 (human); compound 0.001 µM) was -3.7% and the inhibition (MAP3K1 (human); compound 0.02 µM) was -3.5%. For the same compound, the inhibition (MAP3K12 (human); compound 0.001 µM) was 6.6%, the inhibition (MAP3K12 (human); compound 0.02 µM) was 4.3% and the inhibition (MAP2K4 (human); compound 0.001 µM) was -0.4%. For the same compound, the inhibition (MAP2K4 (human); compound 0.02 µM) was -5.7%, the inhibition (MAP2K2 (human); compound 0.001 µM) was -7.9% and the inhibition (MAP2K2 (human); compound 0.02 µM) was 0.1%. For the same compound, the inhibition (MAP2K5 (human); compound 0.001 µM) was -15.6%, the inhibition (MAP2K5 (human); compound 0.02 µM) was -11.8% and the inhibition (MAP2K1 (human); compound 0.001 µM) was 4.3%. The inhibition (MAP2K1 (human); compound 0.02 µM) was -1.3%, the inhibition (MAP3K11 (human); compound 0.001 µM) was -5.9% and the inhibition (MAP3K11 (human); compound 0.02 µM) was -7.1%. The inhibition (BMPR1A (human); compound 0.001 µM) was -0.4%, the inhibition (BMPR1A (human); compound 0.02 µM) was 1.1% and the inhibition (MAP3K2 (human); compound 0.001 µM) was -0.4%. It also gave an inhibition (MAP3K2 (human); compound 0.02 µM) of 1.9%, an inhibition (MAP2K6 (human); compound 0.001 µM) of 3.2% and an inhibition (MAP2K6 (human); compound 0.02 µM) of 2.3%. It also gave an inhibition (TTK (human); compound 0.001 µM) of -2.7%, an inhibition (TTK (human); compound 0.02 µM) of -3.2% and an inhibition (MAP3K4 (human); compound 0.001 µM) of -7.9%. For the same compound, the inhibition (MAP3K4 (human); compound 0.02 µM) was -1.7%, the inhibition (PLK4 (human); compound 0.001 µM) was 23.3% and the inhibition (PLK4 (human); compound 0.02 µM) was 48.9%. For the same compound, the inhibition (MAP2K3 (human); compound 0.001 µM) was -2.7%, the inhibition (MAP2K3 (human); compound 0.02 µM) was -2.2% and the inhibition (MAP3K8 (human); compound 0.001 µM) was -5.7%. The inhibition (MAP3K8 (human); compound 0.02 µM) was -0.7%, the inhibition (MOS (human); compound 0.001 µM) was -7.5% and the inhibition (MOS (human); compound 0.02 µM) was -15.4%. It also gave an inhibition (WEE1 (human); compound 0.001 µM) of -2.1%, an inhibition (WEE1 (human); compound 0.02 µM) of 1.5% and an inhibition (MAP3K5 (human); compound 0.001 µM) of -2%. The inhibition (MAP3K5 (human); compound 0.02 µM) was -2.8%, the inhibition (MAP2K7 (human); compound 0.001 µM) was -1.2% and the inhibition (MAP2K7 (human); compound 0.02 µM) was -3.4%. The inhibition (LIMK1 (human); compound 0.001 µM) was 1.5%, the inhibition (LIMK1 (human); compound 0.02 µM) was -2.6% and the inhibition (STK11 (human); compound 0.001 µM) was 1.9%. The inhibition (STK11 (human); compound 0.02 µM) was 0.2%, the inhibition (MAP3K10 (human); compound 0.001 µM) was 4.4% and the inhibition (MAP3K10 (human); compound 0.02 µM) was 2.7%. For the same compound, the inhibition (MAP3K3 (human); compound 0.001 µM) was 6.6%, the inhibition (MAP3K3 (human); compound 0.02 µM) was 0.5% and the inhibition (MAP3K9 (human); compound 0.001 µM) was 1.1%. The inhibition (MAP3K9 (human); compound 0.02 µM) was 0.1%, the inhibition (SYK (human); compound 0.001 µM) was -9.8% and the inhibition (SYK (human); compound 0.02 µM) was -8.9%. It also gave an inhibition (PAK6 (human); compound 0.001 µM) of -7%, an inhibition (PAK6 (human); compound 0.02 µM) of 0.1% and an inhibition (IGF1R (human); compound 0.001 µM) of 0.7%. It also gave an inhibition (IGF1R (human); compound 0.02 µM) of -1.8%, an inhibition (STK38 (human); compound 0.001 µM) of 8% and an inhibition (STK38 (human); compound 0.02 µM) of -1.3%. The inhibition (CLK3 (human); compound 0.001 µM) was 10.3%, the inhibition (CLK3 (human); compound 0.02 µM) was -5.1% and the inhibition (PKN1 (human); compound 0.001 µM) was -26.9%. It also gave an inhibition (PKN1 (human); compound 0.02 µM) of -21.6%, an inhibition (PLK2 (human); compound 0.001 µM) of -3% and an inhibition (PLK2 (human); compound 0.02 µM) of 1.7%. It also gave an inhibition (SRPK1 (human); compound 0.001 µM) of -6.9% and an inhibition (SRPK1 (human); compound 0.02 µM) of -5.3%.

In the case of `CCN(CC)CCNC(=O)c1c(C)[nH]c(/C=C2\C(=O)Nc3ccc(F)cc32)c1C`, the inhibition (RAF1 (human); compound 0.2 µM) is reported as -61.4%, the inhibition (RAF1 (human); compound 4.0 µM) is reported as -88.1% and the inhibition (BRAF (human); compound 0.2 µM) is reported as -51%. It also gave an inhibition (BRAF (human); compound 4.0 µM) of -60.8%, an inhibition (MAP3K1 (human); compound 0.2 µM) of 15.9% and an inhibition (MAP3K1 (human); compound 4.0 µM) of -29.8%. The inhibition (MAP3K12 (human); compound 0.2 µM) was 59.5%, the inhibition (MAP3K12 (human); compound 4.0 µM) was 96.5% and the inhibition (MAP2K4 (human); compound 0.2 µM) was 2.8%. For the same compound, the inhibition (MAP2K4 (human); compound 4.0 µM) was 51.9%, the inhibition (MAP2K2 (human); compound 0.2 µM) was 70.1% and the inhibition (MAP2K2 (human); compound 4.0 µM) was 99%. For the same compound, the inhibition (MAP2K5 (human); compound 0.2 µM) was 32.7%, the inhibition (MAP2K5 (human); compound 4.0 µM) was 91.8% and the inhibition (MAP2K1 (human); compound 0.2 µM) was 73.2%. It also gave an inhibition (MAP3K11 (human); compound 0.2 µM) of 30.9%, an inhibition (MAP3K11 (human); compound 4.0 µM) of 89.4% and an inhibition (BMPR1A (human); compound 0.2 µM) of -3.8%. The inhibition (BMPR1A (human); compound 4.0 µM) was -7.3%, the inhibition (MAP3K2 (human); compound 0.2 µM) was 52.1% and the inhibition (MAP3K2 (human); compound 4.0 µM) was 95.7%. It also gave an inhibition (MAP2K6 (human); compound 0.2 µM) of 21.1%, an inhibition (MAP2K6 (human); compound 4.0 µM) of 87.3% and an inhibition (TTK (human); compound 0.2 µM) of 11.5%. For the same compound, the inhibition (TTK (human); compound 4.0 µM) was 89.7%, the inhibition (MAP3K4 (human); compound 0.2 µM) was -4.9% and the inhibition (MAP3K4 (human); compound 4.0 µM) was 17.5%. It also gave an inhibition (PLK4 (human); compound 0.2 µM) of 30.3%, an inhibition (PLK4 (human); compound 4.0 µM) of 82.7% and an inhibition (MAP2K3 (human); compound 0.2 µM) of -2%. It also gave an inhibition (MAP3K8 (human); compound 0.2 µM) of -5.3%, an inhibition (MAP3K8 (human); compound 4.0 µM) of -9.2% and an inhibition (MOS (human); compound 0.2 µM) of 2.5%. The inhibition (MOS (human); compound 4.0 µM) was 29.9%, the inhibition (WEE1 (human); compound 0.2 µM) was 10% and the inhibition (WEE1 (human); compound 4.0 µM) was 65.3%. The inhibition (MAP3K5 (human); compound 0.2 µM) was -0.6%, the inhibition (MAP3K5 (human); compound 4.0 µM) was 60.6% and the inhibition (MAP2K7 (human); compound 0.2 µM) was 2.2%. The inhibition (MAP2K7 (human); compound 4.0 µM) was -3.6%, the inhibition (LIMK1 (human); compound 0.2 µM) was -0.7% and the inhibition (LIMK1 (human); compound 4.0 µM) was 31.7%. It also gave an inhibition (STK11 (human); compound 0.2 µM) of 4.3%, an inhibition (STK11 (human); compound 4.0 µM) of 28.1% and an inhibition (MAP3K10 (human); compound 0.2 µM) of 1.2%. For the same compound, the inhibition (MAP3K10 (human); compound 4.0 µM) was 11%, the inhibition (MAP3K3 (human); compound 0.2 µM) was 56.3% and the inhibition (MAP3K3 (human); compound 4.0 µM) was 95.5%. For the same compound, the inhibition (PAK6 (human); compound 0.2 µM) was 6%, the inhibition (PAK6 (human); compound 4.0 µM) was 22.2% and the inhibition (BTK (human); compound 0.2 µM) was 2.7%. It also gave an inhibition (BTK (human); compound 4.0 µM) of 51.2%, an inhibition (IGF1R (human); compound 0.2 µM) of 40.1% and an inhibition (IGF1R (human); compound 4.0 µM) of 93%. The inhibition (STK38 (human); compound 0.2 µM) was 8.9%, the inhibition (STK38 (human); compound 4.0 µM) was 45.1% and the inhibition (CLK3 (human); compound 0.2 µM) was 9.2%. It also gave an inhibition (CLK3 (human); compound 4.0 µM) of 37%, an inhibition (PKN1 (human); compound 0.2 µM) of -2.2% and an inhibition (PKN1 (human); compound 4.0 µM) of 57.1%. For the same compound, the inhibition (PLK2 (human); compound 0.2 µM) was -4.7%, the inhibition (PLK2 (human); compound 4.0 µM) was 4.2% and the inhibition (SRPK1 (human); compound 0.2 µM) was -0.7%. It also gave an inhibition (SRPK1 (human); compound 4.0 µM) of 39.6%.
